Measurements taken from US12612408B2, “Pyrazolone-fused pyrimidine compound, preparation method for same and applications thereof” (SHANGHAI PHARMACEUTICALS HOLDING CO., LTD., priority 2019, dated 2026).
One block for each compound: values may come before it.

Assays:
[1] = biological target: T1, WEE1 kinase (Homo sapiens, UniProt P30291); assay: Inhibitory effect of compound on WEE1 kinase in vitro (ELISA); assay type: biochemical; details: ATP concentration of Km
T1 construct: purchased CarnaBiosciences, Inc. 05-177
Description: The tested compounds were screened on WEE1 kinase with ATP concentration of Km by ELISA. Compounds were screened on WEE1 kinase to evaluate the kinase inhibitory activity of the tested compounds. In the detection process, the initial concentration of the tested compounds was all selected as 100 nM, and each compound was selected with 6 gradient dilution concentrations, the gradient dilution ratio was 4-fold, and two replicate wells were detected for each concentration, MK1775 was used as the standard control.
WEE1, purchased from CarnaBiosciences, Inc., Item No. 05-177; dimethyl sulfoxide, purchased from Sigma-Aldrich, Item No. D8418; ATP, purchased from Sigma-Aldrich, Item No. A7699; DTT solution, purchased from Sigma-Aldrich, Item No. 43816; protein tyrosine kinase (PTK) substrate (poly-Glu-Tyr), purchased from Sigma-Aldrich, Item No. P4476; P-Tyr (PY99), purchased from Santa Cruz, Item No. sc-7020; Anti-mouse IgG HRP-linked Antibody, purchased from Santa Cruz, Item No. 7076S; TMB liquid Substrate System, purchased from Sigma-Aldrich, Item No. T0440; Costar Stripwell Microplate No Lid 1×8 Flat Bottom, Certified High Binding, purchased from Sigma-Aldrich, Item No. 42592; 96-well compound plate, purchased from Thermo Scientific, Item No. 267245.
• 1. Coating substrate: 1) An appropriate volume of substrate storage solution protein tyrosine kinase (PTK) substrate (poly-Glu-Tyr) was taken, diluted 10 times with PBS, and the concentration was diluted from […]. The mixture was added to a high adsorption 96-well plate at 125 μL per well. The plate was placed in an incubator at 37° C. for overnight coating. 2) After 24 hours, the 96-well plate was taken out, the liquid in the 96-well plate was poured out, cleaned with washing buffer for 3 times, and the incubator at 37° C. was inverted and dried for 2 hours. • 2. Compound preparation and transfer: 1) compound dilution: 10 mM of the test compound storage solution was taken, the compound in 96-well compound plate was diluted with DMSO in multiple steps to obtain the initial concentration of 100× compound as the first concentration, and then DMSO was used for 4-fold gradient dilution, for a total of 6 concentrations; after that, 2 μL of the gradient dilution solution was added to 48 μL of 1× reaction buffer respectively to prepare 4× compound; 2) 4× compounds were transferred: 10 μL of 4× compounds from the 96-well compound plate configured in the previous step were transferred into the dried high adsorption 96-well plate; 10 μL of the following liquids were added to the compound-free control wells and ATP-control wells: 2 μL of DMSO was added to 48 μL of 1× reaction buffer. • 3. Enzyme reaction stage: 1) WEE1 kinase and ATP were prepared into 2× enzyme solution and 4×ATP solution respectively with 1× reaction buffer. In this screening, the final concentration of WEE1 kinase was: 0.15 ng/μL and the final concentration of ATP was: […]; 2) 20 μL of enzyme solution of 2 was added to the high adsorption 96-well plate; 3) 10 μL of 4×ATP solution was added to the high adsorption 96-well plate and 10 μL of 1× reaction buffer was added to the ATP-control group; 4) the plate was placed in HERAEUS Multifuge X1R centrifuge at 2000 rpm for 20 s and then placed at room temperature and reacted for 60 min. • 4. Reaction termination stage: 1) the reaction mixture in the plate was poured out, 200 μL of washing buffer was added to each well, and washed for 5 times; the primary antibody P-Tyr (PY99) (dilution ratio 1:2000) was added, 100 μL per well, at room temperature for 30 min. 2) The primary antibody in the plate was poured out, 200 μL of washing buffer was added to each well, and washed for 5 times; the second antibody Anti-mouse IgG HRP-linked Antibody (dilution ratio 1:2000) was added, 100 μL per well, at room temperature for 30 min.

[2] = Bioavailability test in vivo in mice (pharmacokinetics, iv and intragastric); design: species or system ICR mice
Description: 404.6 μL of DMSO was added to the compound powder of the present disclosure until the compound was completely dissolved, and 50 mg/mL mother liquor was prepared in a clarified state.
The compound of the present disclosure: 24 μL of mother liquor was accurately measured, diluted to 4 mL according to the ratio of 0.9% normal saline:PEG400=8:2, the preparation concentration was 0.3 mg/mL, the solution was in a clarified state, and it was used as intravenous administration solution. In addition, 80 μL mother liquor was accurately measured, and 0.5% CMC-Na was added to 8 mL to grind it into a uniform suspension with a concentration of 0.5 mg/mL, which was used as intragastric administration solution.
(§1) Intravenous group: 24 ICR mice, 20±2 g, were given the intravenous administration solution of the compound of the present disclosure by intravenous injection, with the volume of 10 mL/kg, with the dose of 3 mg/kg, the blood was taken from the fundus venous plexus of mice, 2, 5, 15, 30, 60, 90, 120, 240, 360, 480, 600 and 1440 minutes before and after administration.
as §1, with “Intragastric group:” for “Intravenous group:”, “the intragastric” for “the intravenous”, “by intragastric” for “by intravenous”, “of 20” for “of 10”, “of 10” for “of 3”, “mice,” for “mice, 2,”
Blood sample was centrifuged at 8000 rpm for 5 min, and the plasma was stored in a centrifuge tube at −20° C. for later use.
300 μL of acetonitrile containing internal standard (Propranolol, 25 ng/mL) was added to 50 μL of plasma samples to precipitate protein, vortexed for 10 min, 6000 g, 4° C., centrifuged for 10 min; the supernatant before intravenous injection for 1 hour was taken, diluted 10 times with acetonitrile containing internal standard, the rest supernatant was kept undiluted, centrifuged for 10 min again at 6000 g, 4° C., and the supernatant was taken and then injected into a 96-well plate.
(§2) Dose; peak concentration: Cmax; peak time: Tmax; area under the drug-time curve from AUClast 0 to time t; half-life: T1/2; mean retention time: MRT; clearance: Cl; apparent distribution volume: Vz; steady-state distributed volume: Vss; absolute bioavailability: F.
The pharmacokinetic parameters of the compound in mice after intravenous injection or intragastric administration were shown in Table 4 and Table 5 below.

[3] = Bioavailability test in vivo in cynomolgus monkey (pharmacokinetics, IV and PO); details: cynomolgus monkeys
Description: Twelve male Non-Naïve cynomolgus monkeys were purchased from GuangxiGuidong Primate Development Experiment Co. LTD.
(§3) 54.31 mg of I-8-1 was accurately weighed, and 1.08 mL of DMSO was added, then the mixture was vortexed for 1 min, sonicated for 15 min, and then diluted to 36 mL according to the ratio of 10% HP-β-cyclodextrin (prepared by normal saline): PEG=8:2, vortexed for 1 min. A colorless clarified administration solution (the pH value was about 7) at a concentration of 1.5 mg/mL was prepared for intravenous administration to Group 1.
300.9 mg of I-8-1 was accurately weighed, and 75 mL of 0.5% CMC-Na was added, the mixture was fully ground and stirred for 5 min. A white suspension (the pH value was about 7) at a concentration of 4 mg/mL was prepared for oral administration to Group 2.
as §3, with “54.05 mg” for “54.31 mg”, “of AZD1775” for “of I-8-1”, “then he” for “then the”, “of 10%-D-cyclodextrin” for “of 10% HP-β-cyclodextrin”, “A yellow” for “A colorless”, “Group 3.” for “Group 1.”
300.7 mg of AZD1775 was accurately weighed, and 75 mL of 0.5% CMC-Na was added, the mixture was fully ground and stirred for 5 min. A yellow suspension (the pH value was about 7) at a concentration of 4 mg/mL was prepared for oral administration to Group 4.
Before administration, all animals were fasted overnight (approximately 12 hours) and fed as required and administered according to the table below.
Intravenous group: before administration (0 h), 0.033 h, 0.083 h, 0.25 h, 0.5 h, 1 h, 1.5 h, 2 h, 4 h, 6 h, 8 h, 12 h, 24 h after administration.
Oral group: before administration (0 h), 0.083 h, 0.25 h, 0.5 h, […], 2 h, 4 h, 6 h, 8 h, 12 h, 24 h after administration.
Blood samples were collected by puncture through lower limb vein or other suitable blood vessels at 1 mL/time point (3 mL of blood samples were collected from each animal before administration), anticoagulated with heparin sodium, and placed on ice after collection. Plasma was separated at 2200 g/min, 10 min, 2-8° C., plasma samples were stored in a −80° C. refrigerator before being transferred to the client. Plasma samples are stored in dry ice and transferred to the client. The final treatment of the sample will be recorded in the experimental record.
300 μL of acetonitrile was added to 50 μL of plasma samples containing internal standard (Propranolol, 25 ng/mL) to precipitate protein, vortexed for 10 min, centrifuged at 6000 g for 10 min, after I-8-1&AZD1775 intravenous injection group was diluted 10 times with internal standard acetonitrile (Propranolol, 25 ng/mL) at the time point before 1 hour, the remaining supernatant was not diluted, centrifuged again at 6000 g at 4° C. for 10 min, and the supernatant was taken and injected into a 96 well plate.
as §2
The pharmacokinetic parameters of the compound in cynomolgus monkeys after intravenous injection or intragastric administration were shown in Table 6 below.

[4] = ICR, mouse, plasma, iv, 3 mg/kg
[5] = ICR, mouse, plasma, po (intragastric), 10 mg/kg
[6] = male, cynomolgus monkey, plasma, iv, 3 mg/kg
[7] = male, cynomolgus monkey, plasma, po, 20 mg/kg, fasted

T1 sequence (P30291 whole entry): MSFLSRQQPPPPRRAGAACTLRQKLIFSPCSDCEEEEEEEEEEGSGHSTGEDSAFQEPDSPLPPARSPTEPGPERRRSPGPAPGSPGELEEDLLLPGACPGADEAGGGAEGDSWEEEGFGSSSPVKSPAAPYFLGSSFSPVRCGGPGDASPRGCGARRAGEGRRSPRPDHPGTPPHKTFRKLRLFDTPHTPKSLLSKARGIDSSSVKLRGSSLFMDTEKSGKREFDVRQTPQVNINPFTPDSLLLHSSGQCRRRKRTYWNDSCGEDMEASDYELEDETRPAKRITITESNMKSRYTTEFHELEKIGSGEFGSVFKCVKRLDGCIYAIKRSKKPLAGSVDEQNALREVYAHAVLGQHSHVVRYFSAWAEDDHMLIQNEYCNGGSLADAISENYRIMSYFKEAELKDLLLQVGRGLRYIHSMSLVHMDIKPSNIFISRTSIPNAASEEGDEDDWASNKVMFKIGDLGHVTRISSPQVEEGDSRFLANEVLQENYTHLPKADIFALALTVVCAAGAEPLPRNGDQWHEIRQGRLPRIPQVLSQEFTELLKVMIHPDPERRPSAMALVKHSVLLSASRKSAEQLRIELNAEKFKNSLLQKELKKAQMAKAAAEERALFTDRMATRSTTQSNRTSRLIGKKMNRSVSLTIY

SMILES: C=CCn1c(=O)c2cnc(Nc3ccc(C4CCC(N(C)C)CC4)cc3)nc2n1-c1cccc(C(C)(C)O)n1 (single isomer, unassigned) [Compound I-1-2]
- IC50 [1]: 2.08 nM

SMILES: C=CCn1c(=O)c2cnc(Nc3ccc(C4CCC(N5CCCC5)CC4)cc3)nc2n1-c1cccc(C(C)(C)O)n1 (single isomer, unassigned) [Compound I-3-1]
- IC50 [1]: 0.35 nM

SMILES: C=CCn1c(=O)c2cnc(Nc3ccc(C4CCC(N5CCCC5)CC4)cc3)nc2n1-c1cccc(C(C)(C)O)n1 (single isomer, unassigned) [Compound I-3-2]
- IC50 [1]: 0.66 nM

SMILES: C=CCn1c(=O)c2cnc(Nc3ccc(C4CCC(N5CCC5)CC4)cc3)nc2n1-c1cccc(C(C)(C)O)n1 (single isomer, unassigned) [Compound I-8-2]
- IC50 [1]: 3.52 nM

SMILES: C=CCn1c(=O)c2cnc(Nc3ccc(C4CCC(N5CCOCC5)CC4)cc3)nc2n1-c1cccc(C(C)(C)O)n1 (centres unmarked) [Compound I-2]
- IC50 [1]: 2.57 nM

SMILES: C=CCn1c(=O)c2cnc(Nc3ccc(C4CCC(C(=O)O)CC4)cc3)nc2n1-c1cccc(C(C)(C)O)n1 (centres unmarked) [Compound I-5, 4-(4-((2-allyl-1-(6-(2-hydroxypropan-2-yl)pyridin-2-yl)-3-oxo-2,3-dihydro-1H-pyrazolo[3,4-d]pyrimidin-6-yl)amino)phenyl)cyclohexane-1-carboxylic acid]
- IC50 [1]: 7.15 nM

The next lines start with the values.

- IC50 [1]: 1.52 nM
SMILES: C=CCn1c(=O)c2cnc(Nc3ccc(C4CCC(N(C)C)CC4)cc3)nc2n1-c1cccc(C2(O)COC2)n1 (single isomer, unassigned) [Compound I-15-1]

- IC50 [1]: 1.68 nM
SMILES: C=CCn1c(=O)c2cnc(Nc3ccc(C4CCC(N(C)C)CC4)cc3)nc2n1-c1cccc(C2(O)COC2)n1 (single isomer, unassigned) [Compound I-15-2]

- IC50 [1]: 2.92 nM
SMILES: C=CCn1c(=O)c2cnc(Nc3ccc(C4CCC(N5CCC5)CC4)cc3)nc2n1-c1cccc(C2(O)COC2)n1 (single isomer, unassigned) [Compound I-36-2]

- Cmax [2, 4]: 774 ± 53.8 ng/mL
- MRT [2, 4]: 0.42 ± 0.02 h
- Tmax [2, 4]: 0.05 ± 0.03 h
- clearance [2, 4]: 183 mL/min/kg
- half-life [2, 4]: 0.65 ± 0.03 h
- Vd ([2]; ICR, mouse, plasma, iv, 3 mg/kg, iv, 3 mg/kg, read-out: Vss): 4.58 ± 0.44 L/kg
- Vd ([2]; ICR, mouse, plasma, iv, 3 mg/kg, iv, 3 mg/kg, read-out: Vz): 10.3 ± 1.12 L/kg
- bioavailability ([2]; ICR, mouse, plasma, po 10 mg/kg vs iv 3 mg/kg, read-out: F (absolute bioavailability)): 16.7%
- Cmax [2, 5]: 205 ± 124 ng/mL
- MRT [2, 5]: 4.33 ± 0.28 h
- Tmax [2, 5]: 0.33 ± 0.14 h
- half-life [2, 5]: 3.1 ± 0.22 h
- AUClast ([2]; iv, 3 mg/kg): 273.1 ± 21.34 (h) (ng/mL)
- AUClast ([2]; po (intragastric), 10 mg/kg): 151.7 ± 62.14 (h) (ng/mL)
- AUCextra ([3]; iv, 3 mg/kg): 47.62 ± 58.18 (h)*(ng/mL)
- AUClast ([3]; iv, 3 mg/kg): 4494 ± 1719 (h)*(ng/mL)
- AUCtot ([3]; iv, 3 mg/kg): 4542 ± 1777 (h)*(ng/mL)
- thalf ([3]; iv, 3 mg/kg): 2.78 ± 0.26 h
- AUCextra ([3]; po, 20 mg/kg, fasted): 8.46 ± 1.91 (h)*(ng/mL)
- AUClast ([3]; po, 20 mg/kg, fasted): 8155 ± 818.2 (h)*(ng/mL)
- AUCtot ([3]; po, 20 mg/kg, fasted): 8163 ± 819.7 (h)*(ng/mL)
- thalf ([3]; po, 20 mg/kg, fasted): 2.03 ± 1.22 h
- Vd ([3]; male, cynomolgus monkey, plasma, iv, 3 mg/kg, iv, 3 mg/kg, read-out: Vss): 4.33 ± 0.74 L/kg
- Vd ([3]; male, cynomolgus monkey, plasma, iv, 3 mg/kg, iv, 3 mg/kg, read-out: Vz): 2.84 ± 0.76 L/kg
- Cmax [3, 6]: 1200 ± 134 ng/mL
- MRT [3, 6]: 6.53 ± 2.51 h
- Tmax [3, 6]: 2.69 ± 4.6 h
- clearance [3, 6]: 12 mL/min/kg
- bioavailability ([3]; male, cynomolgus monkey, plasma, po 20 mg/kg vs iv 3 mg/kg, read-out: BA (absolute bioavailability)): 27.2%
- Cmax [3, 7]: 1630 ng/mL
- MRT [3, 7]: 3.58 ± 0.07 h
- Tmax [3, 7]: 2 h
SMILES: C=CCn1c(=O)c2cnc(Nc3ccc(N4CCN(C)CC4)cc3)nc2n1-c1cccc(C(C)(C)O)n1 [Control 1, reference compound]
